# Measured values as given in ChEMBL document CHEMBL4665919, “Novel Tricyclic Pyroglutamide Derivatives as Potent RORγt Inverse Agonists Identified using a Virtual Screening Approach” (ACS Med Chem Lett, 2020).
# How the values were obtained:
# [1] = AUC in BALB/c mouse at 4 mg/kg, po measured upto 72 hrs; type: ADME, organism-based; parameters: route oral, dose 4 mg/kg, time <=72; conditions: in vivo
# HepG2 = assay: Cytotoxicity against human HepG2 cells assessed as reduction in cell viability
# [2] = molecular target: T1, Nuclear receptor ROR-alpha (Homo sapiens, UniProt P35398); assay: Inverse agonist activity at Gal4-fused RORalpha (unknown origin)
# T1 sequence (P35398 whole entry): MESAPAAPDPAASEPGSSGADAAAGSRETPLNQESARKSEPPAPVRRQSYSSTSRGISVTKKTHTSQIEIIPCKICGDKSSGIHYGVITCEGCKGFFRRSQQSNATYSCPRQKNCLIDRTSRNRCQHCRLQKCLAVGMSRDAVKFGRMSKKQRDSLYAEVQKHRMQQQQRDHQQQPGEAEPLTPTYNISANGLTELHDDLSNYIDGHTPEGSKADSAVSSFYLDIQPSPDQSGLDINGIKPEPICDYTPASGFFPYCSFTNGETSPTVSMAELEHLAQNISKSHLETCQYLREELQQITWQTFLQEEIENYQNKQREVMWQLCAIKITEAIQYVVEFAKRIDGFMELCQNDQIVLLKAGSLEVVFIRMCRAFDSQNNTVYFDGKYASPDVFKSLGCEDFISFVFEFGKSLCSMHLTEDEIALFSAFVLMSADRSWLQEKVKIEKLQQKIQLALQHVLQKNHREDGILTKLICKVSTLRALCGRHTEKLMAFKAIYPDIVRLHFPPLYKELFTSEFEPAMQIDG
# [3] = AUC in BALB/c mouse at 2 mg/kg, iv measured upto 72 hrs; type: ADME, organism-based; parameters: route intravenous, dose 2 mg/kg, time <=72; conditions: in vivo
# [4] = AUC in BALB/c mouse at 4 mg/kg, po; type: ADME, organism-based; parameters: dose 4 mg/kg; conditions: in vivo
# Cytochrome P450 1A2 = molecular target: T2, Cytochrome P450 1A2 (Homo sapiens, UniProt P05177); assay: Inhibition of CYP1A2 (unknown origin); type: ADME
# T2 sequence (P05177 whole entry): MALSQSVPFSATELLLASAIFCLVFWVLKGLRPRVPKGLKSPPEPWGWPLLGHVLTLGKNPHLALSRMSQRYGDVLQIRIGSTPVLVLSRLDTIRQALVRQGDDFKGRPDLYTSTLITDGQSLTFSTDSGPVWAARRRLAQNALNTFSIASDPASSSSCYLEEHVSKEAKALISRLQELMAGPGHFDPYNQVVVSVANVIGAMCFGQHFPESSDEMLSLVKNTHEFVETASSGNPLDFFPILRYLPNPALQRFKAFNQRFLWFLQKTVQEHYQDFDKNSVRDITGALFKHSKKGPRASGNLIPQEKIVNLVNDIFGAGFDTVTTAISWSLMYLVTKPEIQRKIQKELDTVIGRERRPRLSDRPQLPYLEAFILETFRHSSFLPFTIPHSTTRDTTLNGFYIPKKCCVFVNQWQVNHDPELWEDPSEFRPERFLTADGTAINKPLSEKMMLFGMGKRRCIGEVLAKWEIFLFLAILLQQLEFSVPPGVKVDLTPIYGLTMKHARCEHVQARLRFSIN
# Cytochrome P450 3A4 = Cytochrome P450 3A4 (Homo sapiens, UniProt P08684); assay: Inhibition of CYP3A4 (unknown origin); type: ADME
# [5] = Permeability across apical to basolateral side in human Caco2 cells; type: ADME, cell-based; conditions: Caco-2, read-out: permeability
# [6] = Half life in rat liver microsomes; type: ADME, Microsome
# [7] = Protein binding in human; type: ADME
# [8] = molecular target: T3, Nuclear receptor subfamily 1 group I member 2 (Homo sapiens, UniProt O75469); assay: Inverse agonist activity at PXR (unknown origin)
# T3 sequence (O75469 whole entry): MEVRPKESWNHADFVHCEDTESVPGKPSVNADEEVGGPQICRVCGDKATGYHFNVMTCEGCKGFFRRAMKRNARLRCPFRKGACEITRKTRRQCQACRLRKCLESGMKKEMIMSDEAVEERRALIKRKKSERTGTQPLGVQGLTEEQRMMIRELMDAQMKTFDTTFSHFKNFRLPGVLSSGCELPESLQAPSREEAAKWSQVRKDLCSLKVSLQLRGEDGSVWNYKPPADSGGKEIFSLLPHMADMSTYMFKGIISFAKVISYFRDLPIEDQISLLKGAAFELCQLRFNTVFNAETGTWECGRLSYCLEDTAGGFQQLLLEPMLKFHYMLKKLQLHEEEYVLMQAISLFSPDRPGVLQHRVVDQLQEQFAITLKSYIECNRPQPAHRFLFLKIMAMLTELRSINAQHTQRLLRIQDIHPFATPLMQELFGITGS
# [9] = Half life in mouse liver microsomes; type: ADME, Microsome
# Cytochrome P450 2D6 = Cytochrome P450 2D6 (Homo sapiens, UniProt P10635); assay: Inhibition of CYP2D6 (unknown origin); type: ADME
# Cytochrome P450 2C19 = Cytochrome P450 2C19 (Homo sapiens, UniProt P33261); assay: Inhibition of CYP2C19 (unknown origin); type: ADME
# [10] = molecular target: T4, Nuclear receptor ROR-beta (Homo sapiens, UniProt Q92753); assay: Inverse agonist activity at Gal4-fused RORbeta (unknown origin)
# T4 sequence (Q92753 whole entry): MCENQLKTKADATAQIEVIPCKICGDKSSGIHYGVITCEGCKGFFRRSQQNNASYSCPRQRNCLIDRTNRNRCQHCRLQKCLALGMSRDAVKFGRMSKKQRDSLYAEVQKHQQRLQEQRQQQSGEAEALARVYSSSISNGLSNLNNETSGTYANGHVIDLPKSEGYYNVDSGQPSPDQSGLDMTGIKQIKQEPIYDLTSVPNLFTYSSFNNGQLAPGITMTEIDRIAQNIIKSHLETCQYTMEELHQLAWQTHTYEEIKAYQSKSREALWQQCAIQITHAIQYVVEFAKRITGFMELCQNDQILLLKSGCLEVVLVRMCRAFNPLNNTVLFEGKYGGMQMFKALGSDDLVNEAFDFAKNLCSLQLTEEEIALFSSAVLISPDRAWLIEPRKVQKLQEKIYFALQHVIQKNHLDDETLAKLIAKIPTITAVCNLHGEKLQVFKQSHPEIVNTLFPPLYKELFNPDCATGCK
# [11] = Oral bioavailability in BALB/c mouse at 4 mg/kg; type: ADME, organism-based; conditions: in vivo
# [12] = Cmax in BALB/c mouse at 4 mg/kg, po; type: ADME, organism-based; parameters: route oral, dose 4 mg/kg; conditions: in vivo
# [13] = Kinetic solubility of compound in acetate buffer at pH 4; type: physicochemical; conditions: read-out: Kinetic_solubility
# [14] = Half life in human liver microsomes; type: ADME, Microsome
# [15] = AUC in BALB/c mouse at 2 mg/kg, iv; type: ADME, organism-based; parameters: dose 2 mg/kg; conditions: in vivo
# [16] = Permeability across basolateral to apical side in human Caco2 cells; type: ADME, cell-based; conditions: Caco-2, read-out: permeability
# [17] = Half life in BALB/c mouse at 2 mg/kg, iv; type: ADME, organism-based; conditions: in vivo
# [18] = Kinetic solubility of compound in acetate buffer at pH 6.5; type: physicochemical; conditions: read-out: Kinetic_solubility
# [19] = Tmax in BALB/c mouse at 4 mg/kg, po; type: ADME, organism-based; conditions: in vivo
# [20] = Protein binding in mouse; type: ADME, organism-based; conditions: in vivo
# Chain of Cytochrome P450 2C19 (P33261 whole entry, the tested form may be a part): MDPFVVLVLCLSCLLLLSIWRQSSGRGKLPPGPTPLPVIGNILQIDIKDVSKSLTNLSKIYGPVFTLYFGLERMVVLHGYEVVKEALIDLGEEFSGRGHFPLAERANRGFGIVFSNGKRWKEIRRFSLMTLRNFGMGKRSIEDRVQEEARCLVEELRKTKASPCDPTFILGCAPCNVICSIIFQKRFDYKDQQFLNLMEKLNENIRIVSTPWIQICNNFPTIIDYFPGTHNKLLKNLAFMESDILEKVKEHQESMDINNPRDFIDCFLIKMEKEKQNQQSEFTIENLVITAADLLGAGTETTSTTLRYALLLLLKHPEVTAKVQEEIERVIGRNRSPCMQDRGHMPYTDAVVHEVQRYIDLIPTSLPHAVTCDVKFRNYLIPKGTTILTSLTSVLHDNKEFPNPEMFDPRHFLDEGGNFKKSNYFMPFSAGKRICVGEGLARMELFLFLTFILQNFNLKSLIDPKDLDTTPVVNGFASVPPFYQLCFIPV
# Chain of Cytochrome P450 2D6 (P10635 whole entry): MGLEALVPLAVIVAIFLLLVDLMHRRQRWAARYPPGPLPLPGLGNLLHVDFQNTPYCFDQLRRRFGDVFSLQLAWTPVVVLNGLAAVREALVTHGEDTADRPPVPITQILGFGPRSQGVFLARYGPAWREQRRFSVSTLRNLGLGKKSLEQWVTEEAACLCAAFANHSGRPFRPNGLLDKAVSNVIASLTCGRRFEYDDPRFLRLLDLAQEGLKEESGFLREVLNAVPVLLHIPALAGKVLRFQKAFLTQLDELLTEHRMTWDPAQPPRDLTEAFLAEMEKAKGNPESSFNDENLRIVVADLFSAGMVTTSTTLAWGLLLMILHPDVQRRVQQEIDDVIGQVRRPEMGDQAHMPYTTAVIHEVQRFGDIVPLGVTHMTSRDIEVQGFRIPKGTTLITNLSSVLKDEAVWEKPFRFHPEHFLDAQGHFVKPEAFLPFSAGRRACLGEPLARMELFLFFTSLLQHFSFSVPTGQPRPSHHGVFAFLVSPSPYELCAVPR
# Chain of Cytochrome P450 3A4 (P08684 whole entry): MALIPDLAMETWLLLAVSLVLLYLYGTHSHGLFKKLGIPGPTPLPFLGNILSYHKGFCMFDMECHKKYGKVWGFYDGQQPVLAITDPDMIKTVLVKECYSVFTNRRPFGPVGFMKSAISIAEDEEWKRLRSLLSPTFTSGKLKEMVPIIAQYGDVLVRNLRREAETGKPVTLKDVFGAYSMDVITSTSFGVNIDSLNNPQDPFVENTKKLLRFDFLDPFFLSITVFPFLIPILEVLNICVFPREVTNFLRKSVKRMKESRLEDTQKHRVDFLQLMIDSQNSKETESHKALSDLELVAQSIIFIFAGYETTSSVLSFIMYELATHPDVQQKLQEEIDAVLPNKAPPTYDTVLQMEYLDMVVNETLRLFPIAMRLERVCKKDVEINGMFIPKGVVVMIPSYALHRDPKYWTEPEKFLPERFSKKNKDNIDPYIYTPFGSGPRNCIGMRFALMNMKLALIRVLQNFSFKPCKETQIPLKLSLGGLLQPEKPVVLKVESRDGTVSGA
compound,measurement,setting,value
CC(C)(O)CN1C(=O)[C@H](F)C[C@H]1C(=O)N1CC[C@@]2(S(=O)(=O)c3ccc(F)cc3)c3ccc(C(F)(C(F)(F)F)C(F)(F)F)cc3CC[C@@H]12,AUC at 72 h,[1],43.9 µM·h
same,EC50,HepG2,> 100 µM
same,EC50,[2],> 10 µM
same,AUC at 72 h,[3],23 µM·h
same,AUC,[4],44.4 µM·h
same,IC50,Cytochrome P450 1A2,> 20 µM
same,IC50,Cytochrome P450 3A4,> 20 µM
same,Papp A→B,[5],9.3 ×10⁻⁶ cm/s
same,half-life,[6],> 2 h
same,fraction unbound,[7],0.025
same,EC50,[8],> 50 µM
same,half-life,[9],> 2 h
same,IC50,Cytochrome P450 2D6,> 20 µM
same,IC50,Cytochrome P450 2C19,> 20 µM
same,EC50,[10],8.4 µM
same,bioavailability,[11],94%
same,Cmax,[12],2200 nM
same,solubility kinetic,[13],< 1 µg/mL
same,half-life,[14],> 2 h
same,AUC,[15],23.7 µM·h
same,Papp B→A,[16],19 ×10⁻⁶ cm/s
same,half-life,[17],15 h
same,solubility kinetic,[18],< 1 µg/mL
same,Tmax,[19],4.3 h
same,fraction unbound,[20],1.3%
